According to article doi:10.1101/2025.07.06.663376v1, “Fubylation as a Druggable Ubiquitin-Like Conjugation System Controlling Hippo Pathway Activity” (biorxiv, 2025):

Columns and labels:
Type in all cases: binding
FAU = biological target: T1, FAU (Homo sapiens, UniProt P62861); assay: photo-crosslinking, rhodamine-azide click, in-gel fluorescence
T1 construct: uncleaved FAU precursor (FUBI fused to ribosomal protein S30); GST-tagged (pGEX-6P-1), E. coli BL21, glutathione agarose

FUBI [1] = biological target: T2, FUBI (Homo sapiens, UniProt P62861); assay: as above
T2 construct: gene FAU; mature FUBI (74 residues, ends VAGRMLGG) cut from the FAU precursor (FUBI-eS30 fusion); E. coli BL21; GST-FUBI (pGEX-6P-1) for photolabelling; untagged FUBI (6-HIS-SUMO removed by ULP1) for HDX-MS; printed peptides 32-42 EGIAPEDQVVL and 67-74 VAGRMLGG
Description: photo-crosslinking, rhodamine-azide click, in-gel fluorescence on FUBI | recombinant preparations of FUBI, but not S30, were dose-dependently labeled by mCMN927

FUBI [2] = biological target: T2, FUBI; assay: HDX-MS (also competition of probe labelling); settings: untagged FUBI 5 µM, 600 µM compound, 20 mM Tris-HCl, 100 mM NaCl, pH 8.0, 25 °C; non-covalent; residues 32-42 and 67-74

| EC50 (FAU) | EC50 (FUBI [1]) | Compound | HDX-MS (also competition of probe labelling) (FUBI [2]) |
| --- | --- | --- | --- |
| 4.3 µM | 3.5 µM | C#CCCC1(CCN(C)CC2CCN(c3nc(-c4ccncc4)nc4ccccc34)CC2)N=N1 [mCMN927, {2-[3-(but-3-yn-1-yl)diazirin-3-yl]ethyl}(methyl)({1-[2-(pyridin-4-yl)quinazolin-4-yl]piperidin-4-yl}methyl)amine] |  |
|  |  | CN(C)CC1CCN(c2nc(-c3ccncc3)nc3ccccc23)CC1 [sCMF231] | sCMF231 treatment reduced deuterium exchange within two key regions |
